Measurements as given in patent publication US9012491B2, “Heterocyclic boronic acid ester derivatives and therapeutic uses thereof” (priority 2011, dated 2015).
Where two headings read alike, the source gives them in different places.

Legend:
Type in all cases: cell-based
KPX1001 (OXA-2, class D) = experiment: Tigemonam potentiation (MPC@4) by β-lactamase inhibitors; details: tigemonam at 4 μg/mL, strain KPX1001, OXA-2, class D
Description: (§1) Selected β-lactamase inhibitors were tested for their ability to potentiate the monobactam tigemonam. […] Tigemonam is present in the test medium at 4 μg/mL. Compounds tested at the highest concentration of 40 μg/mL. In this assay potency of compounds is determined as a concentration of BLIs to inhibit growth of bacteria in the presence of 4 μg/mL of […] (MPC@4).

PAM2035 (class C) = details: tigemonam at 4 μg/mL, strain PAM2035, class C
Description: as §1

EC1009 (TEM-10) = experiment: Tigemonam potentiation (MPC@4) by β-lactamase inhibitors; details: tigemonam at 4 μg/mL; strain EC1009, class A ESBL TEM-10; class symbols
Description: as §1

EC1010 (CMY-6, class C) = experiment: as above; details: tigemonam at 4 μg/mL; strain EC1010, CMY-6, class C; class symbols
Description: as §1

ECL1002 (class C) = experiment: as above; details: tigemonam at 4 μg/mL; strain ECL1002, class C; class symbols
Description: as §1

KP1005 (CTX-M-14) = experiment: as above; details: tigemonam at 4 μg/mL; strain KP1005, class A ESBL CTX-M-14; class symbols
Description: as §1

KP1007 (OXA-10, class D) = experiment: as above; details: tigemonam at 4 μg/mL; strain KP1007, OXA-10, class D; class symbols
Description: as §1

KP1009 (CTX-M-15) = experiment: as above; details: tigemonam at 4 μg/mL; strain KP1009, class A ESBL CTX-M-15; class symbols
Description: as §1

KP1010 (SHV-12) = experiment: as above; details: tigemonam at 4 μg/mL; strain KP1010, class A ESBL SHV-12; class symbols
Description: as §1

KP1012 (SHV-18) = experiment: as above; details: tigemonam at 4 μg/mL; strain KP1012, class A ESBL SHV-18; class symbols
Description: as §1

ec302 (TEM-10) = experiment: as above; details: tigemonam at 4 μg/mL; strain ec302, class A ESBL TEM-10; class symbols
Description: as §1

ec304 (TEM-26) = experiment: as above; details: tigemonam at 4 μg/mL; strain ec304, class A ESBL TEM-26; class symbols
Description: as §1

ec308 (SHV-5) = experiment: as above; details: tigemonam at 4 μg/mL; strain ec308, class A ESBL SHV-5; class symbols
Description: as §1

Row | SMILES | MPC4 OXA-2, KPX1001 (KPX1001 (OXA-2, class D)) [µg/mL] | MPC4 PAM2035 (PAM2035 (class C)) [µg/mL] | MPC4 TEM-10 EC1009 (EC1009 (TEM-10)) | MPC4 CMY-6, EC1010 (EC1010 (CMY-6, class C)) | MPC4 ECL1002 (ECL1002 (class C)) | MPC4 CTX-M-14 KP1005 (KP1005 (CTX-M-14)) | MPC4 OXA-10, KP1007 (KP1007 (OXA-10, class D)) | MPC4 CTX-M-15 KP1009 (KP1009 (CTX-M-15)) | MPC4 SHV-12 KP1010 (KP1010 (SHV-12)) | MPC4 SHV-18 KP1012 (KP1012 (SHV-18)) | MPC4 OXA-2, KPX1001 (KPX1001 (OXA-2, class D); class symbols) | MPC4 TEM-10 ec302 (ec302 (TEM-10)) | MPC4 TEM-26 ec304 (ec304 (TEM-26)) | MPC4 SHV-5 ec308 (ec308 (SHV-5)) | MPC4 PAM2035 (PAM2035 (class C); class symbols)
1 | O=C(O)[C@H]1/C(=C/CO)O[C@@H]2CC(=O)N21 [Clavulanic Acid] | 1.25 | >40 | – | – | – | – | – | – | – | – | – | – | – | – | –
2 | O=C(O)CC1COC[C@H](NC(=O)Cc2cccs2)B(O)O1 (stereo partly drawn) [Compound 1, 2-((3R)-2-hydroxy-3-(2-(thiophen-2-yl)acetamido)-1,5,2-dioxaborepan-7-yl)acetic acid] | – | – | Z (Z = MPC@4 of greater than 10 μg/mL.) | X (X = MPC@4 of less than 2 μg/mL.) | Y (Y = MPC@4 of 2 μg/mL to 10 μg/mL.) | Y (Y = MPC@4 of 2 μg/mL to 10 μg/mL.) | Y (Y = MPC@4 of 2 μg/mL to 10 μg/mL.) | Y (Y = MPC@4 of 2 μg/mL to 10 μg/mL.) | X (X = MPC@4 of less than 2 μg/mL.) | X (X = MPC@4 of less than 2 μg/mL.) | X (X = MPC@4 of less than 2 μg/mL.) | Z (Z = MPC@4 of greater than 10 μg/mL.) | Z (Z = MPC@4 of greater than 10 μg/mL.) | Y (Y = MPC@4 of 2 μg/mL to 10 μg/mL.) | Y (Y = MPC@4 of 2 μg/mL to 10 μg/mL.)
3 | CC(=O)N1CC(CC(=O)O)OB(O)[C@@H](NC(=O)Cc2cccs2)C1 (stereo partly drawn) [Compound 10, 2-((3R)-5-acetyl-2-hydroxy-3-(2-(thiophen-2-yl)acetamido)-1,5,2-oxazaborepan-7-yl)acetic acid] | – | – | – | Y (Y = MPC@4 of 2 μg/mL to 10 μg/mL.) | Y (Y = MPC@4 of 2 μg/mL to 10 μg/mL.) | Y (Y = MPC@4 of 2 μg/mL to 10 μg/mL.) | X (X = MPC@4 of less than 2 μg/mL.) | Y (Y = MPC@4 of 2 μg/mL to 10 μg/mL.) | X (X = MPC@4 of less than 2 μg/mL.) | – | – | Z (Z = MPC@4 of greater than 10 μg/mL.) | – | Y (Y = MPC@4 of 2 μg/mL to 10 μg/mL.) | –
4 | COC(=O)N1CC(CC(=O)O)OB(O)[C@@H](NC(=O)Cc2cccs2)C1 (stereo partly shown) [Compound 45] | – | – | – | – | – | Y (Y = MPC@4 of 2 μg/mL to 10 μg/mL.) | X (X = MPC@4 of less than 2 μg/mL.) | Y (Y = MPC@4 of 2 μg/mL to 10 μg/mL.) | X (X = MPC@4 of less than 2 μg/mL.) | – | – | Z (Z = MPC@4 of greater than 10 μg/mL.) | – | Y (Y = MPC@4 of 2 μg/mL to 10 μg/mL.) | –
5 | C[C@]1(Cn2ccnn2)[C@H](C(=O)O)N2C(=O)C[C@H]2S1(=O)=O [Tazobactam] | 40 | 5 | – | – | – | – | – | – | – | – | – | – | – | – | –
